The source of these data is publication PMC9907135 (Proceedings of the National Academy of Sciences of the …, 2022).

Series [1] concerns Expi293 cells. The settings on record: percentage of Helicons in cells after treatment and wash; Expi293 cells 1x10^6 cells/mL, 22 hours, 37°C; washed twice with DPBS; MS quantitation, single-point calibration; n=2, mean ± SD.
Series [2] relates to Expi293 cells. The settings on record: luminescence at Tfinal (22 hours) divided by Tinitial, measure of ATP levels, reflective of cell health.

SMILES strings stand for the structures. Bridge positions count the residues as written; N and C are the ends. Square brackets hold non-standard residues; d marks the D form. Peptide text beside a SMILES is read from it. * marks the point of attachment. 5FAM = O=C1OC2(c3ccc(O)cc3Oc3cc(O)ccc32)c2ccc(C(=O)*)cc21; R8 = C=CCCCCCC[C@@](C)(N)C(=O)O; S5 = C=CCCC[C@](C)(N)C(=O)O; Nle = CCCC[C@H](N)C(=O)O

Regarding `CCCC[C@H](NC(=O)[C@@H](NC(C)=O)[C@@H](C)CC)C(=O)N[C@@H](C)C(=O)N[C@]1(C)CCCCCCC=CCCC[C@@](C)(C(=O)N[C@@H](CCC(N)=O)C(=O)N[C@@H](Cc2ccc(O)cc2)C(=O)N[C@@H](CC(N)=O)C(N)=O)NC(=O)[C@H](Cc2c[nH]c3ccccc23)NC(=O)[C@H](Cc2ccccc2)NC(=O)[C@H](C)NC(=O)[C@H](C)NC(=O)[C@H](CCC(N)=O)NC(=O)[C@H](Cc2ccc(O)cc2)NC1=O` [FP08024] (Ac-I[Nle]A[R8]YQAAFW[S5]QYN-NH2; staple 4-11), in the series on Expi293 cells [1], the “Helicon in cells ± SD (%)” value is 6.5 ± 0.5%. In the series with Expi293 cells [2], the “CellTiter-Glo fold change ± SD” value is reported as 1.2 ± 0.00.

For `CCCC[C@H](NC(=O)[C@@H](NC(C)=O)C(C)C)C(=O)N[C@@H](CCC(=O)O)C(=O)N[C@]1(C)CCCCCCC=CCCC[C@@](C)(C(=O)N[C@@H](Cc2c[nH]cn2)C(=O)N[C@@H](Cc2ccc(O)cc2)C(=O)N[C@H](C(N)=O)C(C)C)NC(=O)[C@H]([C@@H](C)CC)NC(=O)[C@H](Cc2ccccc2)NC(=O)[C@H](C)NC(=O)[C@H](C)NC(=O)[C@H](CCC(=O)O)NC(=O)[C@H](Cc2ccc(O)cc2)NC1=O` [FP07856] (Ac-V[Nle]E[R8]YEAAFI[S5]HYV-NH2; staple 4-11), in the series on Expi293 cells [1], the “Helicon in cells ± SD (%)” value is listed as 15.5 ± 0.9%. The “CellTiter-Glo fold change ± SD” value in the series with Expi293 cells [2] is on record as 1.3 ± 0.12.

With `CCCC[C@H](NC(=O)[C@@H](NC(C)=O)C(C)C)C(=O)N[C@@H](CCC(=O)O)C(=O)N[C@]1(C)CCCCCCC=CCCC[C@@](C)(C(=O)N[C@@H](Cc2c[nH]cn2)C(=O)N[C@@H](Cc2ccc(O)cc2)C(=O)N[C@H](C(N)=O)C(C)C)NC(=O)[C@H]([C@@H](C)CC)NC(=O)[C@H](Cc2ccccc2)NC(=O)[C@H](C)NC(=O)[C@H](C)NC(=O)[C@H](CCC(=O)O)NC(=O)[C@H](Cc2ccc(O)cc2)NC1=O` [FP07855] (Ac-V[Nle]E[R8]YEAAFI[S5]HYV-NH2; staple 4-11), in the series with Expi293 cells [1], the “Helicon in cells ± SD (%)” value is 16.4 ± 0.6%. In addition, the “CellTiter-Glo fold change ± SD” value in the series with Expi293 cells [2] is listed as 1.2 ± 0.10.

`CCCC[C@H](NC(=O)[C@@H](NC(C)=O)C(C)C)C(=O)N[C@@H](CCC(N)=O)C(=O)N[C@]1(C)CCCCCCC=CCCC[C@@](C)(C(=O)N[C@@H](Cc2c[nH]cn2)C(=O)N[C@@H](Cc2ccc(O)cc2)C(=O)N[C@H](C(N)=O)C(C)C)NC(=O)[C@H]([C@@H](C)CC)NC(=O)[C@H](Cc2ccccc2)NC(=O)[C@H](C)NC(=O)[C@H](C)NC(=O)[C@H](CCC(N)=O)NC(=O)[C@H](Cc2ccc(O)cc2)NC1=O` [FP07872] (Ac-V[Nle]Q[R8]YQAAFI[S5]HYV-NH2; staple 4-11): in the series with Expi293 cells [1], the “Helicon in cells ± SD (%)” value is 11.7 ± 1.6%. Besides, the “CellTiter-Glo fold change ± SD” value in the series with Expi293 cells [2] was 1.1 ± 0.02.

As for `CC[C@H](C)[C@H](NC(C)=O)C(=O)N[C@@H](CC(C)C)C(=O)N[C@@H](CCC(N)=O)C(=O)N[C@]1(C)CCCCCCC=CCCC[C@@](C)(C(=O)N[C@@H](Cc2c[nH]cn2)C(=O)N[C@@H](Cc2ccc(O)cc2)C(=O)N[C@@H](CCC(N)=O)C(N)=O)NC(=O)[C@H](CO)NC(=O)[C@H](Cc2ccccc2)NC(=O)[C@H](C)NC(=O)[C@H](C)NC(=O)[C@H](CCC(=O)O)NC(=O)[C@H](Cc2ccc(O)cc2)NC1=O` [FP07859] (Ac-ILQ[R8]YEAAFS[S5]HYQ-NH2; staple 4-11), in the series with Expi293 cells [1], the “Helicon in cells ± SD (%)” value worked out at 0.1 ± 0.0%. The “CellTiter-Glo fold change ± SD” value in the series with Expi293 cells [2] was found to be 1.2 ± 0.02.

As to `CCCC[C@H](NC(=O)[C@@H](NC(C)=O)C(C)C)C(=O)N[C@@H](CCC(=O)O)C(=O)N[C@]1(C)CCCCCCC=CCCC[C@@](C)(C(=O)N[C@@H](Cc2c[nH]cn2)C(=O)N[C@@H](Cc2ccc(O)cc2)C(=O)N[C@H](C(N)=O)C(C)C)NC(=O)[C@H]([C@@H](C)CC)NC(=O)[C@H](Cc2ccccc2)NC(=O)[C@H](C)NC(=O)[C@H](C)NC(=O)[C@H](CCC(N)=O)NC(=O)[C@H](Cc2ccc(O)cc2)NC1=O` [FP07868] (Ac-V[Nle]E[R8]YQAAFI[S5]HYV-NH2; staple 4-11), the “Helicon in cells ± SD (%)” value with Expi293 cells [1] came out at 10.3 ± 1.4%. The “CellTiter-Glo fold change ± SD” value with Expi293 cells [2] is 1.2 ± 0.10.

For the compound `CC[C@H](C)[C@H](NC(C)=O)C(=O)N[C@@H](CC(C)C)C(=O)N[C@@H](CCC(N)=O)C(=O)N[C@]1(C)CCCCCCC=CCCC[C@@](C)(C(=O)N[C@@H](Cc2c[nH]cn2)C(=O)N[C@@H](Cc2ccc(O)cc2)C(=O)N[C@@H](CCC(N)=O)C(N)=O)NC(=O)[C@H](CO)NC(=O)[C@H](Cc2ccccc2)NC(=O)[C@H](C)NC(=O)[C@H](C)NC(=O)[C@H](CCC(=O)O)NC(=O)[C@H](Cc2ccc(O)cc2)NC1=O` [FP07860] (Ac-ILQ[R8]YEAAFS[S5]HYQ-NH2; staple 4-11), the “Helicon in cells ± SD (%)” value with Expi293 cells [1] was determined as 0.3 ± 0.0%. In addition, the “CellTiter-Glo fold change ± SD” value in the series on Expi293 cells [2] was determined as 1.2 ± 0.03.

With `CCCC[C@H](NC(=O)[C@H](Cc1ccc(O)cc1)NC(=O)[C@H](CCC(N)=O)NC(=O)[C@]1(C)CCCC=CCCCCCC[C@@](C)(NC(=O)[C@H](CCC(=O)O)NC(=O)[C@H](CC(C)C)NC(=O)[C@@H](NC(C)=O)[C@@H](C)CC)C(=O)N[C@@H](Cc2ccc(O)cc2)C(=O)N[C@@H](CCC(=O)O)C(=O)N[C@@H](C)C(=O)N[C@@H](C)C(=O)N[C@@H](Cc2ccccc2)C(=O)N[C@@H](CCC(=O)O)C(=O)N1)C(N)=O` [FP08017] (Ac-ILE[R8]YEAAFE[S5]QY[Nle]-NH2; staple 4-11), the “Helicon in cells ± SD (%)” value with Expi293 cells [1] worked out at 0.6 ± 0.1%. Moreover, the “CellTiter-Glo fold change ± SD” value in the series with Expi293 cells [2] is on record as 1.2 ± 0.01.

On to `CC(=O)N[C@@H](CC(C)C)C(=O)N[C@H](C(=O)N[C@@H](Cc1ccccc1)C(=O)N[C@]1(C)CCCCCCC=CCCC[C@@](C)(C(=O)N[C@@H](CO)C(=O)N[C@@H](C)C(=O)N[C@@H](C)C(N)=O)NC(=O)[C@H](CC2CCC2)NC(=O)[C@H](CCC(N)=O)NC(=O)[C@H](C)NC(=O)[C@H](Cc2c[nH]c3ccccc23)NC(=O)[C@H](Cc2ccc(O)cc2)NC(=O)[C@H](CCC(=O)O)NC1=O)[C@@H](C)O` [FP01413, reference compound], for which, in the series with Expi293 cells [1], the “Helicon in cells ± SD (%)” value stood at 3.7 ± 0.4%. Besides, the “CellTiter-Glo fold change ± SD” value in the series on Expi293 cells [2] was found to be 1.2 ± 0.07.

With `CCCC[C@H](NC(=O)[C@@H](NC(C)=O)C(C)C)C(=O)N[C@@H](CCC(=O)O)C(=O)N[C@]1(C)CCCCCCC=CCCC[C@@](C)(C(=O)N[C@@H](Cc2c[nH]cn2)C(=O)N[C@@H](Cc2ccc(O)cc2)C(=O)N[C@H](C(N)=O)C(C)C)NC(=O)[C@H]([C@@H](C)CC)NC(=O)[C@H](Cc2ccccc2)NC(=O)[C@H](C)NC(=O)[C@H](C)NC(=O)[C@H](CCC(N)=O)NC(=O)[C@H](Cc2ccc(O)cc2)NC1=O` [FP07867] (Ac-V[Nle]E[R8]YQAAFI[S5]HYV-NH2; staple 4-11), in the series with Expi293 cells [1], the “Helicon in cells ± SD (%)” value is 8.6 ± 0.4%. The “CellTiter-Glo fold change ± SD” value in the series with Expi293 cells [2] is on record as 1.2 ± 0.03.

Turning to `CCCC[C@H](NC(=O)[C@@H](NC(C)=O)C(C)C)C(=O)N[C@@H](CCC(N)=O)C(=O)N[C@]1(C)CCCCCCC=CCCC[C@@](C)(C(=O)N[C@@H](Cc2c[nH]cn2)C(=O)N[C@@H](Cc2ccc(O)cc2)C(=O)N[C@H](C(N)=O)C(C)C)NC(=O)[C@H]([C@@H](C)CC)NC(=O)[C@H](Cc2ccccc2)NC(=O)[C@H](C)NC(=O)[C@H](C)NC(=O)[C@H](CCC(=O)O)NC(=O)[C@H](Cc2ccc(O)cc2)NC1=O` [FP07864] (Ac-V[Nle]Q[R8]YEAAFI[S5]HYV-NH2; staple 4-11), the “Helicon in cells ± SD (%)” value with Expi293 cells [1] was 18.5 ± 11.4%. Moreover, the “CellTiter-Glo fold change ± SD” value in the series with Expi293 cells [2] is listed as 1.1 ± 0.05.

On to `CCCC[C@H](NC(=O)[C@@H](NC(C)=O)C(C)C)C(=O)N[C@@H](CCC(N)=O)C(=O)N[C@]1(C)CCCCCCC=CCCC[C@@](C)(C(=O)N[C@@H](Cc2c[nH]cn2)C(=O)N[C@@H](Cc2ccc(O)cc2)C(=O)N[C@H](C(N)=O)C(C)C)NC(=O)[C@H]([C@@H](C)CC)NC(=O)[C@H](Cc2ccccc2)NC(=O)[C@H](C)NC(=O)[C@H](C)NC(=O)[C@H](CCC(=O)O)NC(=O)[C@H](Cc2ccc(O)cc2)NC1=O` [FP07863] (Ac-V[Nle]Q[R8]YEAAFI[S5]HYV-NH2; staple 4-11), for which the “Helicon in cells ± SD (%)” value in the series with Expi293 cells [1] came out at 23.5 ± 6.5%. In addition, the “CellTiter-Glo fold change ± SD” value in the series with Expi293 cells [2] is 1.2 ± 0.02.

In the case of `CCCC[C@H](NC(=O)[C@H](Cc1ccc(O)cc1)NC(=O)[C@H](CCC(N)=O)NC(=O)[C@]1(C)CCCC=CCCCCCC[C@@](C)(NC(=O)[C@H](CCC(=O)O)NC(=O)[C@H](CC(C)C)NC(=O)[C@@H](NC(C)=O)[C@@H](C)CC)C(=O)N[C@@H](Cc2ccc(O)cc2)C(=O)N[C@@H](CCC(=O)O)C(=O)N[C@@H](C)C(=O)N[C@@H](C)C(=O)N[C@@H](Cc2ccccc2)C(=O)N[C@@H](CCC(=O)O)C(=O)N1)C(N)=O` [FP08018] (Ac-ILE[R8]YEAAFE[S5]QY[Nle]-NH2; staple 4-11), in the series with Expi293 cells [1], the “Helicon in cells ± SD (%)” value worked out at 1.0 ± 0.1%. Besides, the “CellTiter-Glo fold change ± SD” value with Expi293 cells [2] was 1.1 ± 0.05.

Regarding `CC[C@H](C)[C@H](NC(=O)[C@H](Cc1ccc(O)cc1)NC(=O)[C@H](CCC(N)=O)NC(=O)[C@]1(C)CCCC=CCCCCCC[C@@](C)(NC(=O)[C@H](Cc2c[nH]cn2)NC(=O)[C@@H](NC(=O)[C@@H](NC(C)=O)[C@@H](C)CC)[C@@H](C)CC)C(=O)N[C@@H](Cc2ccc(O)cc2)C(=O)N[C@@H](CCC(=O)O)C(=O)N[C@@H](C)C(=O)N[C@@H](C)C(=O)N[C@@H](Cc2ccccc2)C(=O)N[C@@H](Cc2ccccc2)C(=O)N1)C(N)=O` [FP08011] (Ac-IIH[R8]YEAAFF[S5]QYI-NH2; staple 4-11), in the series with Expi293 cells [1], the “Helicon in cells ± SD (%)” value came to 6.5 ± 0.5%. In the series with Expi293 cells [2], the “CellTiter-Glo fold change ± SD” value came out at 1.2 ± 0.01.

Consider `CC(C)C[C@H](NC(=O)[C@H](C)NC(=O)CNC(=O)[C@H](CCCCN)NC(=O)[C@H](CCCNC(=N)N)NC(=O)[C@H](C)NC(=O)[C@H](Cc1ccccc1)NC(=O)[C@H](CCCNC(=N)N)NC(=O)[C@H](CCC(N)=O)NC(=O)c1ccc2c(c1)C(=O)OC21c2ccc(O)cc2Oc2cc(O)ccc21)C(=O)N[C@@H](CCCNC(=N)N)C(=O)N[C@@H](CCC(N)=O)C(=O)N[C@@H](CCCCN)C(=O)N[C@@H](CC(N)=O)C(=O)N[C@H](C(N)=O)C(C)C` [FP47831, reference compound] (5FAM-QRFARKGALRQKNV-NH2), for which, in the series with Expi293 cells [1], the “Helicon in cells ± SD (%)” value came to 0.0 ± 0.0%. For the same compound, in the series on Expi293 cells [2], the “CellTiter-Glo fold change ± SD” value was 1.1 ± 0.02.
